Assay: xn = mol fraction of the nth substance listed
Details: 93.2 kPa, Liquid; for speed of sound: Frequency=3 MHz, Sing-around technique in a fixed-path interferometer; for mass density: Vibrating tube method

CCCC(=O)[O-].CCCC[NH3+] [n-butylammonium butanoate] + CCCO
Details | mass density, 293.15 K [kg/m3] | mass density, 298.15 K [kg/m3] | mass density, 303.15 K [kg/m3] | mass density, 308.15 K [kg/m3] | mass density, 313.15 K [kg/m3] | speed of sound, 293.15 K [m/s] | speed of sound, 298.15 K [m/s] | speed of sound, 303.15 K [m/s] | speed of sound, 308.15 K [m/s] | speed of sound, 313.15 K [m/s]
x1 = 0.0507 | 820.248 | 816.288 | 812.295 | 808.263 | 804.187 | 1245.5 | 1228.1 | 1210.8 | 1193.6 | 1176.7
x1 = 0.1012 | 834.054 | 830.162 | 826.227 | 822.265 | 818.288 | 1264 | 1246.6 | 1229.4 | 1212.2 | 1195.2
x1 = 0.1518 | 845.668 | 841.844 | 837.991 | 834.106 | 830.181 | 1280 | 1262.6 | 1245.3 | 1228.2 | 1211.2
x1 = 0.202 | 855.786 | 852.003 | 848.218 | 844.396 | 840.532 | 1294.2 | 1276.9 | 1259.7 | 1242.6 | 1225.6
x1 = 0.2517 | 864.424 | 860.713 | 856.978 | 853.215 | 849.411 | 1306.7 | 1289.3 | 1272.1 | 1255 | 1238.2
x1 = 0.3003 | 871.964 | 868.301 | 864.616 | 860.902 | 857.161 | 1317.9 | 1300.6 | 1283.4 | 1266.4 | 1249.5
x1 = 0.3334 | 876.626 | 872.985 | 869.329 | 865.652 | 861.938 | 1325 | 1307.7 | 1290.6 | 1273.6 | 1256.7
x1 = 0.401 | 885.2 | 881.621 | 878.022 | 874.402 | 870.759 | 1338.2 | 1321 | 1303.9 | 1286.9 | 1270.2
x1 = 0.4478 | 890.446 | 886.895 | 883.335 | 879.756 | 876.162 | 1346.9 | 1329.7 | 1312.6 | 1295.7 | 1279
x1 = 0.5001 | 895.864 | 892.351 | 888.828 | 885.287 | 881.725 | 1355.5 | 1338.3 | 1321.2 | 1304.4 | 1287.8
x1 = 0.5465 | 900.176 | 896.692 | 893.2 | 889.694 | 886.168 | 1362.8 | 1345.6 | 1328.5 | 1311.7 | 1295.1
x1 = 0.5992 | 904.688 | 901.241 | 897.78 | 894.304 | 890.806 | 1370.7 | 1353.4 | 1336.4 | 1319.6 | 1303
x1 = 0.6495 | 908.619 | 905.208 | 901.781 | 898.337 | 894.874 | 1377.9 | 1360.5 | 1343.5 | 1326.6 | 1310.1
x1 = 0.6928 | 911.76 | 908.377 | 904.977 | 901.561 | 898.121 | 1384 | 1366.5 | 1349.4 | 1332.5 | 1316
x1 = 0.7484 | 915.581 | 912.23 | 908.868 | 905.487 | 902.083 | 1392 | 1374.2 | 1356.9 | 1340 | 1323.4
x1 = 0.7906 | 918.267 | 914.932 | 911.595 | 908.238 | 904.859 | 1398.1 | 1380.1 | 1362.6 | 1345.6 | 1328.9
x1 = 0.8695 | 922.883 | 919.552 | 916.236 | 912.916 | 909.578 | 1409.8 | 1391.2 | 1373.3 | 1355.9 | 1339
x1 = 0.9443 | 926.755 | 923.441 | 920.127 | 916.826 | 913.524 | 1420 | 1400.6 | 1382 | 1364.2 | 1347
x1 = 1 | 928.794 | 925.509 | 922.217 | 918.88 | 915.567 | 1431.5 | 1410.3 | 1390.4 | 1371.5 | 1353.6

Reference: the NIST ThermoML archive (doi:10.1016/j.jct.2016.09.007)
